Values of other authors as cited in article PMC3170264 (Retrovirology, 2011).

Test system: Y143 mutant HIV-1 integrase
Conditions: cited from earlier work

## COc1cc2c(cc1Cc1cccc(Cl)c1F)c(=O)c(C(=O)O)cn2[C@H](CO)C(C)C [elvitegravir]
  activity against Y143 mutant HIV-1 integrase: fully active
